The test relates to LS174T secreted proteases. Description: Secreted protease activity assay with conditioned supernatant. Format: biochemical, human. Particulars: fluorescently quenched substrates, MMP inhibitor added.

For `CNC(=O)[C@@H](NC(=O)[C@H](CC(C)C)[C@H](O)C(=O)NO)C(C)(C)C` [Marimastat], the “in vitro proteolysis of substrates in the presence of Marimastat” value is “abrogated”.

The record behind these values is publication PMC5344125 (Nano letters, 2016).
